Experiment [1] deals with HIF1-α in HEK293 T cells. The experiment in a line: Immunoblots of HEK293 T cells. Type of experiment: cell-based. As to conditions: HEK293 T cells, 0.5, 1, 5, 10, 20, 50 and 100 μM, 18 hours. On the procedure: Cells were grown to 90% confluency.
Protocols for cell culture and immunoblotting were performed using the established methods.
Background: A western blot detects proteins with antibodies after separation by electrophoresis.

In experiment [2] the target is KDM4A: lysine specific demethylase 4A (Homo sapiens (Human), UniProt O75164). The experiment can be described thus: KDM4A LCMS demethylation assay.
Procedure: (§2) 4 ml of enzyme reaction were injected and loaded onto a ZORBAX RRHD Eclipse Plus C18 column (Agilent Technologies, CA, US). Solvent A consisted of LCMS grade water containing 0.1% (v/v) formic acid and solvent B consisted of acetonitrile containing 0.1% (v/v) formic acid. […] The mass spectrometer was operated in the positive ion mode with a drying gas temperature of 280° C., drying gas flow rate of 13 L/min, nebulizer pressure of 40 psig, sheath gas temperature of 350° C., sheath gas flow rate of 12 L/min, capillary voltage of 4000 V, nozzle voltage of 1000 V. All acquired data were analyzed using Agilent MassHunter Qualitative Analysis (Version B.07.00) software.
In experiment [3] the test system is other 2OG oxygenases (off-target sites commonly inhibited by existing PHD inhibitors). The experiment in a line: Selectivity versus other 2OG oxygenases / off-target sites (FIG. 14). The experiment is classed as biochemical.
Experiment [4] addresses KDM5B: lysine specific demethylase 5B (Homo sapiens (Human), UniProt Q9UGL1). The experiment can be described thus: KDM5B LCMS demethylation assay.
Procedure: KDM5B enzyme reactions were performed under optimized buffer conditions (50 mM MES pH 7.0, 50 mM NaCl, 1 mM TCEP). […] The enzyme reaction was progressed for 30 minutes, and the reaction stopped by addition of formic acid to a final concentration of 1% (v/v). Control reactions included a 0.5% DMSO control and a reaction with a known inhibitor of KDM5B (10 mM KDOAM25, ^i).
as §2
Experiment [5] has as its target KDM6B: lysine specific demethylase 6B (Homo sapiens (Human), UniProt O15054). The experiment can be described thus: KDM6B LCMS demethylation assay.
Procedure: The peptide substrate for KDM5B was a 21-mer histone-H3 peptide (ARTK(me3)[sequence]), as synthesized by Peptide Protein Research (Hampshire, UK). The KDM6B peptide substrate was a 17-mer histone-H3 peptide ([sequence](me3)[sequence]), as synthesized by GL Biochem (Shanghai) Ltd (Shanghai, China).
KDM6B reactions were performed under optimized buffer conditions (50 mM MES pH 7.0). […] The enzyme reaction was progressed for 30 minutes and the reaction stopped by addition of formic acid to a final concentration of 1% (v/v). Control reactions included a 0.5% DMSO control and a reaction with a known inhibitor of KDM6B (10 mM GSKJ1,^j).
as §2
The test system of experiment [6] is HIF1-α in Hep3B cells. The experiment can be described thus: Immunoblots of Hep3B cells. The experiment is classed as cell-based. As to conditions: 100 μM and 20 μM, 3 hours. The procedure: Example 159—Immunoblots of Hep3B cells treated with compounds of the invention Hep3B cells were treated with 117, 119, 122 and 123 of the invention (Examples 93, 95, 98 and 99) at 100 μM (A) and 20 μM (B) PHD inhibitors for 3 hours. The blots show protein levels of HIF1-α and β-actin at the 3rd hour after treatment.

For experiment [7], the target named is PHD2 (Homo sapiens (Human), UniProt Q9GZT9). The experiment can be described thus: PHD2 RF-MS (RapidFire LC-MS) hydroxylation assay. The experiment is classed as biochemical. On the procedure:
In brief, cDNA encoding for the catalytic domain of tPHD2 (181-426 residues) was cloned into the pET28a (+)/pET24a (+) vectors (Novagen), to enable production of tPHD2 (residues 181-426) protein with/without an N-terminal His6-tag. The tPHD2 (residues 181-426) encoding construct was transformed into the Escherichia coli BL21 DE3 cell line; protein production was induced with 0.5 mM […] (3-5 hr at 28° C.). […] The protein was exchanged into 50 mM Tris-HCl buffer (pH 7.5) and concentrated to % 40 mg/ml.
Tris(hydroxymethyl)aminomethane was from Fisher. Ferrous ammonium sulfate (FAS), 2-oxoglutarate (2OG) and L-ascorbic acid were from Sigma Aldrich; solutions of these were prepared freshly each day. All inhibition assays were carried out in 384-well polypropylene plates (Greiner Bio-One). PHD2 assays were performed in assay buffer (50 mM Tris. Cl pH 7.5, 50 mM NaCl). […] The final assay concentration of DMSO was kept constant at 0.5%. PHD2 protein was prepared at a concentration of 300 nM in assay buffer and 25 μl dispensed across each 384-well assay plate. The PHD2 solution was allowed to equilibrate with the inhibitors for 15 minutes at room temperature; the enzyme reaction then initiated by dispense of 25 μl of substrate (20 μM FAS, 200 µM L-ascorbic acid, 10 μM CODD peptide and 20 μM 2OG in the assay buffer. Enzyme reactions were allowed to proceed for 20 minutes at room temperature and the reaction terminated by addition of 10% formic acid (5 μl). Assay plates were then transferred to a RapidFire RF360 sampling robot (Agilent) connected to an Agilent 6530 accurate mass quadrupole-time-of-flight (Q-TOF) mass spectrometer. Assay samples were aspirated under vacuum and loaded onto a C4 solid phase extraction (SPE) cartridge. After loading the C4 SPE was washed with 0.1% formic acid in water to remove non-volatile buffer salts and then peptide was eluted from the SPE with 85% acetonitrile, 15% water containing 0.1% formic acid onto the mass spectrometer. Peptide charge states were monitored in positive mode. Ion chromatogram data were extracted for the +2 charge state and peak area data integrated using RapidFire Integrator software (Agilent). % conversion of the CODD peptide substrate to the +16 hydroxylated peptide was calculated using the equation: % conversion=100×hydroxylated/(hydroxylated+non-hydroxylated peptide). IC50 values were determined from non-linear regression plots using GraphPad prism.
Example 158—Structure activity relationship (SAR) studies for PHD inhibition SAR studies for PHD inhibition were carried out on the compounds of the invention. Compounds were screened against PHD2 using the RF-MS hydroxylation assay.

The subject of experiment [8] is human THP-1 cells. The experiment can be described thus: Proliferation and apoptosis of THP-1 cells. The experiment is classed as cell-based. The source says: (§1) Viable cells were counted by trypan blue exclusion at the indicated time points. To analyse cells undergoing apoptosis, cells were suspended in binding buffer containing PE-conjugated Annexin-V or FITC-conjugated Annexin-V, and either PI or DAPI.
To determine consequences of Daprodustat (2) and IOX5 (68, example 46) treatment on AML cells driven by the MLL-AF9→MEIS1/HOXA9 axis, mouse iMLL-AF9-and Meis1Hoxa9-transformed AML cells were employed, as well as human THP-1 cells, which harbour the MIL-AF9 translocation. […] Thus, providing compelling evidence that PHD inhibition compromises AML cells driven by the MLL-AF9→MEIS1/HOXA9 axis.

For experiment [9], the system named is MV411 AML cells in NBSGW recipient mice. The experiment can be described thus: MV411 xenotransplantation in NBSGW mice, combination with Venetoclax. Type of experiment: in vivo, mouse. As to conditions: 14 days treatment; IOX5 i.p. twice daily, Venetoclax o.g. once daily. The procedure: 14 days following transplantation, recipient mice were treated with IOX5 (68, example 46), Venetoclax or vehicle control. Dosing regimen consisted of 2× daily via i.p. injection (IOX5 (68, example 46) or vehicle) and/or 1× daily via o.g. (Venetoclax or vehicle). […] (E-G) Percentage of human CD45+CD33+CD14+ cells in the BM, spleen and liver, respectively (n=5). (H) Survival curve of mice treated with IOX5 (68, example 46), Venetoclax, IOX5 (68, example 46)+Venetoclax or vehicle control (n=6-7). (I-J) Proliferation and Annexin-V+DAPI+analyses, respectively, of THP-1 cells treated with Ven, IOX5, FIH inhibitor (FIHi; DM-NOFD), IOX5 (68, example 46)+FIHi, IOX5 (68, example 46)+Ven, FIHi+Ven, IOX5 (68, example 46)+FIHi+Ven or vehicle control (n=6). Statistical significance represented as in (A-B). Data represent mean±SEM; *p<0.05; ** p<0.01; *** p<0.001; **** p<0.0001.
100,000 THP-1 cells, 100,000 OCI-AM3 cells or 100,000 MV411 cells (for combination experiments) were tail vein injected into non-irradiated 10-to 12-week-old mixed gender NBSGW mice and began drug treatment 14 days after transplantation. […] Mice were culled 5 weeks after transplantation.
Mice in combination treatment experiments with Venetoclax (ABT-199) (MCE) were dosed once daily with 100 mg/kg via oral gavage (o.g.).
Further to findings in Example 170, the efficacy of IOX5 (68, example 46)+Venetoclax combination in vivo was investigated (FIG. 38D). MV411 AML cells were engrafted (with MLL-AF4 and FLT3-ITD mutation) and the recipient mice were treated with a vehicle, IOX5 (68, example 46), Venetoclax, and a combination of IOX5 (68, example 46)+Venetoclax.

In experiment [10] the test system is THP-1, MOLM13, OCI-AML3 and MV411 cells. The experiment in a line: Proliferation and apoptosis of human AML cell lines THP-1, MOLM13, OCI-AML3 and MV411. The experiment is classed as cell-based. As to conditions: 50 μM, single agent. The procedure: (A-B) Proliferation and apoptosis of human AML cell lines THP-1, MOLM13, OCI-AML3 and MV411 treated with vehicle control and 50 μM Molidustat (5). Data represent mean±SEM; **** p<0.0001.
(A-B) Proliferation and apoptosis of human AML cell lines MOLM-13, OCI-AML3, MV411 and THP-1 treated with vehicle control, 50 μM Daprodustat (2), 50 μM IOX5 (68, example 46), 0.1 μM Venetoclax (MOLM-13 and MV411), 0.01 μM Venetoclax (OCI-AML3 and THP-1) and combination therapy. (C-D) Early-([…]) and late stage (PI^+ Annexin^+) apoptosis of human AML patient samples treated with vehicle control, 50 μM Daprodustat (2), 50 μM IOX5 (68, example 46), 0.01 μM Venetoclax and combination therapy. Data represent mean±SEM; * p<0.05; ** p<0.01, *** p<0.001, **** p<0.0001.
as §1

The IC50 is the concentration at which inhibition is half-maximal.

Chain of PHD2 (Q9GZT9 181-426): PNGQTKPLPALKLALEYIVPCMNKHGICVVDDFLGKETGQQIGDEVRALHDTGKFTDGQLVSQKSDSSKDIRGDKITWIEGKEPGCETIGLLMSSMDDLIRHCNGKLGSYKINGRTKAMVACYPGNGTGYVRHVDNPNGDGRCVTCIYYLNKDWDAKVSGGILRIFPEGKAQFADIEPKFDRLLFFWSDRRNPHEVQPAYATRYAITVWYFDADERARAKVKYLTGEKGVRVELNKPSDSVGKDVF
Chain of KDM4A: lysine specific demethylase 4A (O75164 1-359): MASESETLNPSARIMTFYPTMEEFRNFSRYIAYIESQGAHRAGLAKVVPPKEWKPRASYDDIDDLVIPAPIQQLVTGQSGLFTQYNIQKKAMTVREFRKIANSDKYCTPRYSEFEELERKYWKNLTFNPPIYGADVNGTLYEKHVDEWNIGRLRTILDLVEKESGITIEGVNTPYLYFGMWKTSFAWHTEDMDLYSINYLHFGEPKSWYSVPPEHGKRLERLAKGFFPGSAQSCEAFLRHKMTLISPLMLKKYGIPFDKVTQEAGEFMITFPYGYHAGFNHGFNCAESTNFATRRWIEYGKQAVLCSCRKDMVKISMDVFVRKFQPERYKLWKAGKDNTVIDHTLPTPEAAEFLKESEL
Chain of KDM6B: lysine specific demethylase 6B (O15054 1141-1590): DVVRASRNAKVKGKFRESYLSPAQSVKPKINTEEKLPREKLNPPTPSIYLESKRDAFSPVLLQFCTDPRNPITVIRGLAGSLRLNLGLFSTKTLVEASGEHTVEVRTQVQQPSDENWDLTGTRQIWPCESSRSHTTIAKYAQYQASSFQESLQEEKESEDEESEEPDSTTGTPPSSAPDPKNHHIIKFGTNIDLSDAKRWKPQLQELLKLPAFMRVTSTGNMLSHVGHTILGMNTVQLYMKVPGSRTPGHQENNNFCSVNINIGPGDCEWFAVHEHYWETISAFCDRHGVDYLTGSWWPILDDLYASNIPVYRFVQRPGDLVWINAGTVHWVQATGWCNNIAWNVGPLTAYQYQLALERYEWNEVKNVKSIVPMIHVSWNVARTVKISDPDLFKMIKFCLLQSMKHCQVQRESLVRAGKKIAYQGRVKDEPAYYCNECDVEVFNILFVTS
Chain of KDM5B: lysine specific demethylase 5B (Q9UGL1 1-822): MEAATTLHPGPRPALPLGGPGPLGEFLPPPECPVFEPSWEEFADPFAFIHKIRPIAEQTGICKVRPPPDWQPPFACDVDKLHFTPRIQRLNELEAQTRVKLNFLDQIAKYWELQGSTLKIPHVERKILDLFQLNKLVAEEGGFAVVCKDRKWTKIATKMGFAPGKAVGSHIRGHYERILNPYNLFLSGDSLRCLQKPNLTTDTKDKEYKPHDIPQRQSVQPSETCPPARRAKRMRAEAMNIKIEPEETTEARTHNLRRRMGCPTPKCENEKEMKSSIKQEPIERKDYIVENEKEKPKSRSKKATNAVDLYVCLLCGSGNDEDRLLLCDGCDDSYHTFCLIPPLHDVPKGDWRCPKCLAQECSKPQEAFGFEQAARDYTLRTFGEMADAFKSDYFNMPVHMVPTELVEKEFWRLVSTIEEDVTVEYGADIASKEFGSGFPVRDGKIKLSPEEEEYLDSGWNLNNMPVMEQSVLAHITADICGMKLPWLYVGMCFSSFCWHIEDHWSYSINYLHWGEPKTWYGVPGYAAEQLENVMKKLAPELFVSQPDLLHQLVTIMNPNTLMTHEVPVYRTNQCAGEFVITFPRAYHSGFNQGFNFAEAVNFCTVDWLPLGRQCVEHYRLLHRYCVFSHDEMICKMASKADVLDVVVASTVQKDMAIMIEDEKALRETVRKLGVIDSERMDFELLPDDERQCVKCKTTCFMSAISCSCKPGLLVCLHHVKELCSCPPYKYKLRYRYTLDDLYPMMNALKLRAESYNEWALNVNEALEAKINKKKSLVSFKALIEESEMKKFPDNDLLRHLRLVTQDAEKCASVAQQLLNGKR

Consider `O=C(NCC1CCC(C(F)(F)F)CC1)c1cnc(-n2cccn2)cc1O` (stereo not drawn) [Compound 68, 4-Hydroxy-6-(1H-pyrazol-1-yl)-N-((4-(trifluoromethyl)cyclohexyl)methyl) nicotinamide], for which, in [1], the “protein level of HIF1-α (immunoblot)” value was “increase cellular HIF-1α”. For the same compound, the concentration for half-maximal inhibition (IC50) in [2], in experiment [4] and in experiment [5] was over 100 µM each time. Moreover, the “IC50 for off-target sites” value in [3] is “very high IC50”. For the compound `O=C(NCc1ccc(-c2ccccc2)cc1)c1cnc2c(cnc3ccnn32)c1O` [Compound 117, N-([1,1′-Biphenyl]-4-ylmethyl)-6-hydroxypyrazolo[1,5-a]pyrido[3,2-e]pyrimidine-7-carboxamide], the “protein level of HIF1-α (immunoblot)” value in [6] is “increase HIF-1α”. Moreover, in experiment [7], the IC50 was in the range of 1 to 1000 nM. For `O=C(Nc1ccc(-c2ccccc2)cc1)c1cnc2c(cnc3ccnn32)c1O` [Compound 119, N-([1,1′-Biphenyl]-4-yl)-6-hydroxypyrazolo[1,5-a]pyrido[3,2-e]pyrimidine-7-carboxamide] the same measures were “increase HIF-1α” and 1 to 1000 nM.

Regarding `Cc1cc2nc(C)c3c(O)c(C(=O)NCc4ccc(-c5ccccc5)cc4)cnc3n2n1` [Compound 122, N-([1,1′-Biphenyl]-4-ylmethyl)-6-hydroxy-2,5-dimethylpyrazolo[1,5-a]pyrido[3,2-e]pyrimidine-7-carboxamide], the “protein level of HIF1-α (immunoblot)” value in experiment [6] is reported as “increase HIF-1α”. The same compound displayed an IC50 in experiment [7] of 1 to 1000 nM. For `Cc1cc2nc(C)c3c(O)c(C(=O)NCc4ccc(C(F)(F)F)cc4)cnc3n2n1` [Compound 123, 6-Hydroxy-2,5-Dimethyl-N-(4-(trifluoromethyl)benzyl) pyrazolo[1,5-a]pyrido[3,2-e]pyrimidine-7-carboxamide] the same measures were “increase HIF-1α” and 1 to 1000 nM.

The compound `O=C(O)c1cnn(-c2ncc(C(=O)NCC3CCC(C(F)(F)F)CC3)cc2O)c1` (stereo not drawn) [Compound 129, 1-(3-hydroxy-5-(((4-(trifluoromethyl)cyclohexyl)methyl)carbamoyl)pyridin-2-yl)-1H-pyrazole-4-carboxylic acid] displayed an IC50 in experiment [7] of 1 to 1000 nM.

Compound `N#Cc1cnc(-n2cc(C(=O)NCc3ccc(-c4ccccc4)cc3)cn2)nc1O` [Compound 158, N-([1,1′-biphenyl]-4-ylmethyl)-1-(5-cyano-4-hydroxypyrimidin-2-yl)-1H-pyrazole-4-carboxamide] showed an IC50 in experiment [7] of 1 to 1000 nM.

Turning to `N#Cc1cnc(-n2cc(C(=O)NCc3ccc(-c4ccc(C(=O)O)cc4)nc3)cn2)nc1O` [Compound 162, 4-(5-((1-(5-cyano-4-hydroxypyrimidin-2-yl)-1H-pyrazole-4-carboxamido)methyl)pyridin-2-yl)benzoic acid], the IC50 in experiment [7] was in the range of 1000 to 10000 nM. On the same count and under the same terms, for `Cc1cc2nc(C)c3c(O)c(C(=O)NCc4ccc(-c5cccc(N6CCOCC6)c5)nc4)cnc3n2n1` [Compound 176, 6-hydroxy-2,5-dimethyl-N-((6-(3-morpholinophenyl)pyridin-3-yl)methyl) pyrazolo[1,5-a]pyrido[3,2-e]pyrimidine-7-carboxamide] the value was 1000 to 10000 nM. On the same count and under the same terms, for `COc1ccc([C@H](C)NC(=O)c2cnc3c(c(C)nc4cc(C)nn43)c2O)cc1` [Compound 180, (S)-6-hydroxy-N-(1-(4-methoxyphenyl)ethyl)-2,5-dimethylpyrazolo[1,5-a]pyrido[3,2-e]pyrimidine-7-carboxamide] the value was 1 to 1000 nM.

Turning to `COC(=O)C(=O)N[C@H](Cc1ccccc1)C(=O)OC` [DM-NOFD, dimethyl N-oxalyl-D-phenylalanine], the “proliferation and survival (Annexin-V+DAPI+) of AML cells” value in [8] (THP-1 cells, FIH inhibitor DM-NOFD alone or combined) is “no impact on proliferation and survival of AML cells”.

With `CC1(C)CCC(CN2CCN(c3ccc(C(=O)NS(=O)(=O)c4ccc(NCC5CCOCC5)c([N+](=O)[O-])c4)c(Oc4cnc5[nH]ccc5c4)c3)CC2)=C(c2ccc(Cl)cc2)C1` [Venetoclax, venetoclax, reference compound], in experiment [9], the leukaemic burden entry is on record as “decreased leukaemic burden” and the “survival of recipient mice” value is “extended survival of the recipient mice”.

As to `O=c1c(-n2ccnn2)c[nH]n1-c1cc(N2CCOCC2)ncn1` [molidustat], in experiment [10], the “cell death (apoptosis)” value was “induced cell death” and the proliferation entry is listed as “reduced proliferation”. Turning to `Cc1nc(C(=O)NCC(=O)O)c(O)c2ccc(Oc3ccccc3)cc12` [roxadustat], the proliferation entry in experiment [8] (THP-1, 50 μM) is on record as “strong anti-leukaemic activity”.

For the origin of these results see patent US20260027096A1, “PHD INHIBITORS” (Oxford University Innovation Limited, priority 2023, published 2026).
